Source: ChEMBL document CHEMBL1201862, “PubChem BioAssay data set” (2004)
The source made the active and inactive calls.

Experiments:
[1] = target: T1, Microphthalmia-associated transcription factor (Homo sapiens, UniProt O75030); test: reducers of TRPM1 reporter luminescence, concentration series – cell-based, SK-MEL-5, cherry-picked, set 3, MITF inhibitor project, dose response (AID 493073); assay type: functional;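 note: SK-MEL-5 melanoma cells with luciferase driven by the MITF target TRPM1 promoter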
T1 sequence (O75030 whole entry): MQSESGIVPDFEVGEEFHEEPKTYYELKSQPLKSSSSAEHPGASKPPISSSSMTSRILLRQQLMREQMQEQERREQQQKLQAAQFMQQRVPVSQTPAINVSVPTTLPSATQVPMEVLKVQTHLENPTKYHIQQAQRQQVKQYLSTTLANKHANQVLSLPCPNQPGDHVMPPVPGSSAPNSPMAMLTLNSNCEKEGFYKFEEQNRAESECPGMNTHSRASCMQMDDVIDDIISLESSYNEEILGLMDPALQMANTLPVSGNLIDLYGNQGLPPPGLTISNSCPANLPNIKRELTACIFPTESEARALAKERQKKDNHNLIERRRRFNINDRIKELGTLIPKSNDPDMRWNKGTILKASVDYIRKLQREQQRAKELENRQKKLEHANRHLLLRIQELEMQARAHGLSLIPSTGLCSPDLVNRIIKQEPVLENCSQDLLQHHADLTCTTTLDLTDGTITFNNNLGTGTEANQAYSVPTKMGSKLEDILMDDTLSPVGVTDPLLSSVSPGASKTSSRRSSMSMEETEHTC

HEK293 = test: EBV LMP1 TES2 canonical NF-kB signalling blockers – cell-based, HEK293, luciferase, cherry-pick, dose response (AID 588343); assay type: functional; details: Homo sapiens
[2] = target: T2, DNA repair protein RAD52 homolog (Homo sapiens, UniProt P43351); assay type: functional, biochemical
T2 sequence (P43351 whole entry): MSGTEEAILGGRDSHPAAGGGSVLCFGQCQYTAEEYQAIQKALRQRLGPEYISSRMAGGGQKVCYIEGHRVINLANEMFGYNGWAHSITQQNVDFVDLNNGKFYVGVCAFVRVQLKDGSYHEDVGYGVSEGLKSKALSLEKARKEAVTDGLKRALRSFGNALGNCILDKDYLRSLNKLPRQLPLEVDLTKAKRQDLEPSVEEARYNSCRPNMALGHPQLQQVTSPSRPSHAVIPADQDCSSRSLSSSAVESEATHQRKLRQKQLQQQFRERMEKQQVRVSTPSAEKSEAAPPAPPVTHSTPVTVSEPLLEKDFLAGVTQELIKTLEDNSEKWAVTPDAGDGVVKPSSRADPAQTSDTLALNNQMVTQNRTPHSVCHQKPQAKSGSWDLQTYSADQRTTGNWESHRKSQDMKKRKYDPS

Protein RecA = target: T3, Protein RecA (Mycobacterium tuberculosis, UniProt P9WHJ3); test: Fluorescence Cell-Free Homogeneous Dose Retest to Identify Inhibitors of RecA-Intein Splicing Activity. [Related pubchem assays (depositor defined):AID2097, AID2223, AID489010, AID492950]; assay type: functional
T3 sequence (P9WHJ3 whole entry): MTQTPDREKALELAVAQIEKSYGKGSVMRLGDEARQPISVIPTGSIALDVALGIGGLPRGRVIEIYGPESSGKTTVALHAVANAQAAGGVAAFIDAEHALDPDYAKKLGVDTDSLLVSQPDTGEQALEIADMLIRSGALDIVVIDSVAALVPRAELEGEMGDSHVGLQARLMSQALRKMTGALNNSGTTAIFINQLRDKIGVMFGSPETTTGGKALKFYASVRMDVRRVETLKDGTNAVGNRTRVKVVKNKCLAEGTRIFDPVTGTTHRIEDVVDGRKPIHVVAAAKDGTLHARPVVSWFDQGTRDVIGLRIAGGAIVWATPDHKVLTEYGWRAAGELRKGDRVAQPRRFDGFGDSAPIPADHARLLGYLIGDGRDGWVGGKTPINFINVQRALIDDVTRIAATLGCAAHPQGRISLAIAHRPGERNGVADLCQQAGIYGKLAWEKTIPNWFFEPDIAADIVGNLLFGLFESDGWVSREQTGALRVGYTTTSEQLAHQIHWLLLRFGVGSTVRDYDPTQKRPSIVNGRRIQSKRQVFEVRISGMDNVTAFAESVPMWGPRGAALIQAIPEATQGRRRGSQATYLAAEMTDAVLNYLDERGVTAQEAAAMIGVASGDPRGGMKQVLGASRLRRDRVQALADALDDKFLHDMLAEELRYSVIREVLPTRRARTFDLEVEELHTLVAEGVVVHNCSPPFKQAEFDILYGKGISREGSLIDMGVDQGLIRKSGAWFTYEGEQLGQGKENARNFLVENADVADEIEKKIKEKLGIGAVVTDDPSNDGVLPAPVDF

[3] = target: T4, Replicative DNA helicase DnaB (Mycobacterium tuberculosis, UniProt P9WMR3); test: DnaB intein splicing inhibitors, dose response, biochemical, cell-free fluorescence (AID 449749); assay type: functional
T4 sequence (P9WMR3 whole entry): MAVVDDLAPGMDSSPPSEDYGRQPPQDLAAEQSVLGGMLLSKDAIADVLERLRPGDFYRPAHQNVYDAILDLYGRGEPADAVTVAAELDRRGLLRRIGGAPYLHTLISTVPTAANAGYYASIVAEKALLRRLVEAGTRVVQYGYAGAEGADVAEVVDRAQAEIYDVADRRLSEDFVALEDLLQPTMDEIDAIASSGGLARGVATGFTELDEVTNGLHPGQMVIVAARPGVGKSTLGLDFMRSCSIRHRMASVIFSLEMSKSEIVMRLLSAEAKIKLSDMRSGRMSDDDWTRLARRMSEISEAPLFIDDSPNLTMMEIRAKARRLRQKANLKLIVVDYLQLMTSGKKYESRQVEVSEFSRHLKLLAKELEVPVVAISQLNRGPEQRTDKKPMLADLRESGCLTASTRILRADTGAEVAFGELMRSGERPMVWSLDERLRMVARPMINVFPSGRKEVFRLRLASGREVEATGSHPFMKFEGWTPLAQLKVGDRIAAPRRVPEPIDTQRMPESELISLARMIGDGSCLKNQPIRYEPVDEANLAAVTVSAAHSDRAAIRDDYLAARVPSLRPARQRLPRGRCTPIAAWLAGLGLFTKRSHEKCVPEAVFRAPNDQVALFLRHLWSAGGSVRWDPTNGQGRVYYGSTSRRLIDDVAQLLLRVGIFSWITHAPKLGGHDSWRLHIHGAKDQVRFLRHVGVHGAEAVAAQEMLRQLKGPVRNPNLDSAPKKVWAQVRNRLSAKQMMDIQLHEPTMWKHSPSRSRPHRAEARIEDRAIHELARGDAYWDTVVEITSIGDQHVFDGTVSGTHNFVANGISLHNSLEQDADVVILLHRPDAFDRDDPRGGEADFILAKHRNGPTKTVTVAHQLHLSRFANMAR

[4] = target: T5, Heat shock factor protein 1 (Mus musculus, UniProt P38532); test: enhancement of HSF1-driven luciferase signal – cell-based, NIH3T3, luminescence, dose retest, confirmation (AID 435004); assay type: functional;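 note: stress induced by proteasome inhibitor MG132 added 30 min after compound; luciferase reporter driven by HSF1 response element in NIH3T3 cells; actives raise luminescence as potentiators of the MG132 stress response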
T5 sequence (P38532 whole entry): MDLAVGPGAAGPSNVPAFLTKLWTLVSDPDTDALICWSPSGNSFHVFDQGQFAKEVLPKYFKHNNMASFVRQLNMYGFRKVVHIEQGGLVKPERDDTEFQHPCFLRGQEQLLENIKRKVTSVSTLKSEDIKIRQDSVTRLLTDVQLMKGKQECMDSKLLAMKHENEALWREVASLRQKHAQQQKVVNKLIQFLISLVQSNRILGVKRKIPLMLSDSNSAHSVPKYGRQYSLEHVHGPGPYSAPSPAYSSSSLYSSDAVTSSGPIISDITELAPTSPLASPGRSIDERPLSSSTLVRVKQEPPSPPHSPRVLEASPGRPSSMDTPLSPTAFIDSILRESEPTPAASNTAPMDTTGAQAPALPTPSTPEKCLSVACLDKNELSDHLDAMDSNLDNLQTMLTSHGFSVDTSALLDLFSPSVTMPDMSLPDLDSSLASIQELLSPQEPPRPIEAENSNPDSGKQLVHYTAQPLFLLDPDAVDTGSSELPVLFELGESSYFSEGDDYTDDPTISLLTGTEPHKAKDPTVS

Nonstructural protein 1 = Nonstructural protein 1 (Influenza A virus, UniProt Q194T2); assay type: functional, Influenza A virus (A/California/07/2009(H1N1))
INS1 = test: INS-1E survival protection against cytokine death – cell-based, luminescence, retest, dose response (AID 449756); assay type: functional; details: Rattus norvegicus, INS1;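 note: cell death triggered by IL-1 beta plus TNF-alpha plus IFN-gamma mixture; protective hits raise ATP signal compared with cytokine alone wells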
[5] = target: FAD-linked sulfhydryl oxidase ALR (Homo sapiens, UniProt P55789); test: ALR-catalysed DTT oxidation blockers – biochemical, H2O2 detection, luminescence, cherry-pick, dose response (AID 493248)
[6] = target: T6, Rac GTPase-activating protein 1 (Homo sapiens, UniProt Q9H0H5); test: blockers of MgcRacGAP-driven Rac1 GTP hydrolysis – biochemical, ADP Hunter fluorescence, primary and confirmatory, confirmation (AID 624330); assay type: functional
T6 sequence (Q9H0H5 whole entry): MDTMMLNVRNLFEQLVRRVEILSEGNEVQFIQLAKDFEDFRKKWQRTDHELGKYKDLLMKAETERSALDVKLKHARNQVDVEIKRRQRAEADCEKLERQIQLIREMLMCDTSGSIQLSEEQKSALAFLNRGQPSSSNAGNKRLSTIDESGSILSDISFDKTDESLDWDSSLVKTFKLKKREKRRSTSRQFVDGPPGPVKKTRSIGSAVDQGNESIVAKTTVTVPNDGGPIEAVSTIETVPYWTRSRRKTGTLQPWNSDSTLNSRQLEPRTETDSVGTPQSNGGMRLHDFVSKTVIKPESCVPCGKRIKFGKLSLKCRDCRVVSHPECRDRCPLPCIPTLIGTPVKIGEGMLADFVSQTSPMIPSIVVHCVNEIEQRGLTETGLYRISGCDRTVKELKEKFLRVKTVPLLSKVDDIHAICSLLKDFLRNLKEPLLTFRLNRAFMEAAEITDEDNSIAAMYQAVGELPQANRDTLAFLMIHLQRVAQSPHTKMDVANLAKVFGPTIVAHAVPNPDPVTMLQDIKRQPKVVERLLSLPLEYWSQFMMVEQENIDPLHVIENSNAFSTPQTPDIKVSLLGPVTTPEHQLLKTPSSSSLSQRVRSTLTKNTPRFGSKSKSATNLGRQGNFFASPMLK

Large T antigen = Large T antigen (Simian virus 40, UniProt P03070); assay type: functional, Betapolyomavirus macacae;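 note: Confirmatory-stage PubChem screen for compounds that inhibit SV40 T antigen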
[7] = test system: Streptococcus sp. 'group A'; test: Streptococcus pyogenes SK(-)GAS viability under kanamycin – luminescence, BacTiterGlo, confirmation, counter-screen for streptokinase expression inhibitor project, dose response (AID 1900); assay type: functional, organism-based
Streptococcus = test: GAS UMAA2166 growth inhibition – luminescence, BacTiterGlo, counter-screen for streptokinase expression inhibitor project, dose response (AID 1915); assay type: functional, organism-based;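 note: potency for reduction of bacterial viability or growth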
Streptokinase A = target: T7, Streptokinase A (Streptococcus pyogenes serotype M1, UniProt P10520); test: viability-normalized secreted streptokinase activity reduction – plasminogen activation absorbance, OD405, dose response (AID 1914); assay type: functional, Streptococcus pyogenes M1 GAS;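 note: secreted streptokinase activity via plasminogen activation per viability signal from cell pellet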
T7 sequence (P10520 whole entry): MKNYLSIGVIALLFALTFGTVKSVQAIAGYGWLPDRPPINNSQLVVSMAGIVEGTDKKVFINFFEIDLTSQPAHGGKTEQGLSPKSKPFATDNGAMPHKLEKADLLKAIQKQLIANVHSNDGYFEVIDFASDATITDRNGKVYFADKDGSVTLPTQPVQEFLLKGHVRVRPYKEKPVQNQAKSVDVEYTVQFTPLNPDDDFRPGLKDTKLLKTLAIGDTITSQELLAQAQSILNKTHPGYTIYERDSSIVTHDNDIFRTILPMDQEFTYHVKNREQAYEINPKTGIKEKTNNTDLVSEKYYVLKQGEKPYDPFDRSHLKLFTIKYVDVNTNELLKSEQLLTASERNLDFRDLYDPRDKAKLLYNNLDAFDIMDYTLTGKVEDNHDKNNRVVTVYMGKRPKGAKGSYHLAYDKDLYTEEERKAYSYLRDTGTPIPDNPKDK

Chain of FAD-linked sulfhydryl oxidase ALR (P55789 whole entry): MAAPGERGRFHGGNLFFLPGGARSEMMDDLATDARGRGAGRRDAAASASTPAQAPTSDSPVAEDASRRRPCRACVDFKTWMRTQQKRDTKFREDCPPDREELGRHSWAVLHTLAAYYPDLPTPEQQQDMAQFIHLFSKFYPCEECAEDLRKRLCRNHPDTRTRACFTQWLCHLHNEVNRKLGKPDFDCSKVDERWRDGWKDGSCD
Chain of Nonstructural protein 1 (Q194T2 whole entry): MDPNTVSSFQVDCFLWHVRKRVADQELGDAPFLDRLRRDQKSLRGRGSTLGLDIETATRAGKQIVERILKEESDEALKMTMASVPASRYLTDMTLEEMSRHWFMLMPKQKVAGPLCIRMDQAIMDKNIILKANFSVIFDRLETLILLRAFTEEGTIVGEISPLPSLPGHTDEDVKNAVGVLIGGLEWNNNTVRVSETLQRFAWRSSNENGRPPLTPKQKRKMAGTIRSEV
Chain of Large T antigen (P03070 whole entry): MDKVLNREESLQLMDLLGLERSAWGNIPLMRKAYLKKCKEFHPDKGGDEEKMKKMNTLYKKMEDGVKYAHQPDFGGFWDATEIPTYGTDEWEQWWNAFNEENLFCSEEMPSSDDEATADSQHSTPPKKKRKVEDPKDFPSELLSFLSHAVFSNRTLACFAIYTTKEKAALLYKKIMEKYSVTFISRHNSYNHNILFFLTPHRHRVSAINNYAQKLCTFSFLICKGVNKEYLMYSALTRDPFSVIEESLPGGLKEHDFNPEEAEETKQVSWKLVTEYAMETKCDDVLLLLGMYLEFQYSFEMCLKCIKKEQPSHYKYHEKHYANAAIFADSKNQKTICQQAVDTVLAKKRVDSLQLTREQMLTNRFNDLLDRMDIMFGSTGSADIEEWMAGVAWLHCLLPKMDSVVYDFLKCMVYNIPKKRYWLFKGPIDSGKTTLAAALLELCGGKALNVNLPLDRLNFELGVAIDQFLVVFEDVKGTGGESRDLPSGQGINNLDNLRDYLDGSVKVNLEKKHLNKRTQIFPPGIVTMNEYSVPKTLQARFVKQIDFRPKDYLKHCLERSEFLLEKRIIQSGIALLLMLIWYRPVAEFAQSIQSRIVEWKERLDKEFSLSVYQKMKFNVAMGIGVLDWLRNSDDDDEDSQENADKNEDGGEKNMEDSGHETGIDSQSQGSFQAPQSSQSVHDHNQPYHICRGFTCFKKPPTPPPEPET

For `COc1cccc(C(=O)Nc2ccc3c(cc2=O)[C@@H](NC(C)=O)CCc2cc(OC)c(OC)c(OC)c2-3)c1`, the AC50 [1] was 8.43 µM (active).
With `O=c1c2cnn(-c3ccccc3)c2nc(-c2cccs2)n1-c1ccc(Br)cc1` the AC50 (HEK293) was 1.77 µM (active).
`COc1cc2nc(O)c(C(=O)NCCCN3CCOCC3)c(O)c2cc1OC` was tested, and the AC50 [2] was 15 µM (active).
In the case of `O=C(CCl)Nc1cccc(Oc2ccccc2)c1`, the AC50 [1] is reported as 8.07 µM (active), the EC50 (Protein RecA) is reported as 4.28 µM (active) and the AC50 [3] is reported as 11.9 µM (active). For the same molecule, the EC50 [4] was > 260 µM (inactive).
`CC(C)COC(=O)c1ccc2c(c1O)C(=O)c1ccccc1C2=O` was tested, and the IC50 (Nonstructural protein 1) was 34.6 µM (active) and the AC50 (INS1) was 10.9 µM (active).
`O=C(c1ccc2c(c1)OCO2)N1CCN(c2ccccc2)CC1` was tested, and the AC50 [5] was 13.9 µM (active).
With `COc1ccc(C)cc1NC(=O)c1cc2c(CO)cnc(C)c2oc1=N` the AC50 [5] was 7.55 µM (active).
For `COc1ccc(C(=O)COC(=O)CN2CC(=O)Oc3ccccc32)cc1Br`, the IC50 (Nonstructural protein 1) was 4.25 µM (active).
In the case of `CC(C)c1ccc2c(c1)C(=O)NC(C)(C)C2`, the AC50 [5] is reported as 3.3 µM (active).
`Cc1cc(C(=O)Nc2nnc(C3CCCCC3)s2)no1` was tested, and the AC50 [5] was 5.82 µM (active).
In the case of `COc1ccc(-n2nc(C)cc2Nc2ccccc2C(=O)O)cc1`, the AC50 [5] is reported as 3.72 µM (active).
In the case of `CN(C)CCN1CCN(c2cc(-c3cccc(Cl)c3)nc3ccnn23)CC1`, the AC50 [2] is reported as 6.97 µM (active).
With `CCOc1ccc(C(C)=O)cc1Cn1ccsc1=N` the AC50 [2] was 4.87 µM (active).
For `CN(C)CCCNC(=O)c1ccc(-c2cc3nc(NCc4cccnc4)n(C)c(=O)c3s2)cc1`, the AC50 [2] was 13.3 µM (active).
With `O=C(Cc1ccccc1)NCC(=O)N/N=C/c1ccc([N+](=O)[O-])s1` the AC50 [1] was 16.1 µM (active).
For `COc1cc(/C=N/NS(=O)(=O)c2ccc(C)c([N+](=O)[O-])c2)ccc1O`, the IC50 [6] was 40.9 µM (active), the IC50 (Large T antigen) was 7.27 µM (active) and the AC50 [5] was 0.181 µM (active).
For `Cc1nn(-c2ccccc2)c2sc(-c3nnc(S)o3)cc12`, the EC50 [7] was 4.28 µM (active), the EC50 (Streptococcus) was 99 µM (active) and the AC50 [5] was 2.63 µM (active). For the same molecule, the EC50 (Streptokinase A) was > 150 µM (not active).
